In ChEMBL document CHEMBL1201862, “PubChem BioAssay data set” (2004):
The source made the active and inactive calls.

Assays:
[1] = molecular target: T1, RNA-binding protein pos-1 (Caenorhabditis elegans, UniProt G5EF15); test: disruptors of C. elegans POS-1 RNA interaction – biochemical, fluorescence polarization, dose response (AID 1964);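 also: purified POS-1 fused to maltose binding protein made in E. coli; potency of compounds blocking POS-1 binding to fluorescent RNA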
T1 sequence (G5EF15 whole entry): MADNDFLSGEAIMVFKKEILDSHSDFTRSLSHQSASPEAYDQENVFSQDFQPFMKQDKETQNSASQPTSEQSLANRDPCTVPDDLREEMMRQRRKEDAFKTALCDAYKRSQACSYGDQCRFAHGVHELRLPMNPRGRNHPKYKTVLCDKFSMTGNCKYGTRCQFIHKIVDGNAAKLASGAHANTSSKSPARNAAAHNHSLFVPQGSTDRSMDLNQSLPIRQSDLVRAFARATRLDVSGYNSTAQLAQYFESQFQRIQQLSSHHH

[2] = molecular target: T2, Zinc finger protein mex-5 (Caenorhabditis elegans, UniProt Q9XUB2); test: potency of MEX-5 RNA-binding blockers – biochemical, C. elegans, fluorescence polarization, dose response (AID 1960)
T2 sequence (Q9XUB2 whole entry): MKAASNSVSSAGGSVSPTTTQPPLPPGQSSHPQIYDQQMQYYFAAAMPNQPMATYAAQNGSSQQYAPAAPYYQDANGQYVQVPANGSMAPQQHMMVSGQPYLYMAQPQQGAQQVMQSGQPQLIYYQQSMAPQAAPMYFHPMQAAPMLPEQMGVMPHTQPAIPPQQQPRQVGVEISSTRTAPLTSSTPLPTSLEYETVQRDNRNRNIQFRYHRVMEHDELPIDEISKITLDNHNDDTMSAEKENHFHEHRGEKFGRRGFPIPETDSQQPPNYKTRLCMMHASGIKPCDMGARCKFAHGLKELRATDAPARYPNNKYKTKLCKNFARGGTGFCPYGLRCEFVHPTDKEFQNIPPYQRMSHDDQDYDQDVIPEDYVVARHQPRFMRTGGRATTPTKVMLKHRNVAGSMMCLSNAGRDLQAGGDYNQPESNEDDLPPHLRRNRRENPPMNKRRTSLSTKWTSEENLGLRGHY

[3] = molecular target: T3, Ubiquitin-conjugating enzyme E2 N (Homo sapiens, UniProt P61088); format: functional;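 also: Dose-response confirmation in a TR-FRET assay detecting UBC13-driven polyubiquitin chain formation, inhibition measured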
T3 sequence (P61088 whole entry): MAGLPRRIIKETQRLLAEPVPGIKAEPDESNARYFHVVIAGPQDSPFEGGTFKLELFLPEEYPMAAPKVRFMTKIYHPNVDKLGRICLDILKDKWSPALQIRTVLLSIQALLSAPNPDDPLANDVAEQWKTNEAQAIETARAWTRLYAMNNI

[4] = molecular target: Beta-galactosidase (Escherichia coli, UniProt Q8VNN2); test: detection-enzyme interference by beta-gal modulators – biochemical, E. coli enzyme, set 3, artefact control for CCR6 antagonist project, dose response (AID 504712); format: functional
Chain of Beta-galactosidase (Q8VNN2 whole entry): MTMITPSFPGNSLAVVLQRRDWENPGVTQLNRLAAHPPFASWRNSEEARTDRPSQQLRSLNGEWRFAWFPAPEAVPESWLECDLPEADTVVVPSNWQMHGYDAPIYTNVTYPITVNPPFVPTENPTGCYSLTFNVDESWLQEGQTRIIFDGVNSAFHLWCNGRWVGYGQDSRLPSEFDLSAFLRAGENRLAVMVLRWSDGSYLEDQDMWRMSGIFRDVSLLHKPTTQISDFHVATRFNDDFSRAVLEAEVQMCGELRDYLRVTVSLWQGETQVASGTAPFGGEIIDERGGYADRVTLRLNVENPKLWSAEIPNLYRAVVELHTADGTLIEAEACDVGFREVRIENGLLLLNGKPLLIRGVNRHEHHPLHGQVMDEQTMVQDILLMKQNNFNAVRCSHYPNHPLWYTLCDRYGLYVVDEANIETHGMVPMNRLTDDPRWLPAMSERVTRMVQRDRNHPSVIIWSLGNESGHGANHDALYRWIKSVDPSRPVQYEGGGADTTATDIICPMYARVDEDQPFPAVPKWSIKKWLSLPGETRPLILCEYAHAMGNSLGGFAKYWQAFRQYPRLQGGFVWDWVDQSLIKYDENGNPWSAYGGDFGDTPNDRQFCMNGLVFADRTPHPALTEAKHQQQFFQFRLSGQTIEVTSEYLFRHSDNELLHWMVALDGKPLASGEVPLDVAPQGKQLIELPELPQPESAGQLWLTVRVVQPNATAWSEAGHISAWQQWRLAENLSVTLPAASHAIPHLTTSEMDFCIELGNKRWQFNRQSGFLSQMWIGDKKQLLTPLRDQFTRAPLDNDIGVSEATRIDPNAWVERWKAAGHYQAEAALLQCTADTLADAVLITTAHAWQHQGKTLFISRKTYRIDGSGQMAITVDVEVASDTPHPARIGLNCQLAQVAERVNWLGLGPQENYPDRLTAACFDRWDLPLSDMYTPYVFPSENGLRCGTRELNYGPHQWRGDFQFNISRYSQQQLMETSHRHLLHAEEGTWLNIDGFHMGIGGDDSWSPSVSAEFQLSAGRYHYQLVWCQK

[5] = molecular target: T4, Short transient receptor potential channel 4 (Mus musculus, UniProt Q9QUQ5); test: calcium entry via TRPC4 opening agents – cell-based, HEK293 TRPC4/mu-opioid, Fluo-4 calcium, dose response (AID 434937); format: functional
T4 sequence (Q9QUQ5 whole entry): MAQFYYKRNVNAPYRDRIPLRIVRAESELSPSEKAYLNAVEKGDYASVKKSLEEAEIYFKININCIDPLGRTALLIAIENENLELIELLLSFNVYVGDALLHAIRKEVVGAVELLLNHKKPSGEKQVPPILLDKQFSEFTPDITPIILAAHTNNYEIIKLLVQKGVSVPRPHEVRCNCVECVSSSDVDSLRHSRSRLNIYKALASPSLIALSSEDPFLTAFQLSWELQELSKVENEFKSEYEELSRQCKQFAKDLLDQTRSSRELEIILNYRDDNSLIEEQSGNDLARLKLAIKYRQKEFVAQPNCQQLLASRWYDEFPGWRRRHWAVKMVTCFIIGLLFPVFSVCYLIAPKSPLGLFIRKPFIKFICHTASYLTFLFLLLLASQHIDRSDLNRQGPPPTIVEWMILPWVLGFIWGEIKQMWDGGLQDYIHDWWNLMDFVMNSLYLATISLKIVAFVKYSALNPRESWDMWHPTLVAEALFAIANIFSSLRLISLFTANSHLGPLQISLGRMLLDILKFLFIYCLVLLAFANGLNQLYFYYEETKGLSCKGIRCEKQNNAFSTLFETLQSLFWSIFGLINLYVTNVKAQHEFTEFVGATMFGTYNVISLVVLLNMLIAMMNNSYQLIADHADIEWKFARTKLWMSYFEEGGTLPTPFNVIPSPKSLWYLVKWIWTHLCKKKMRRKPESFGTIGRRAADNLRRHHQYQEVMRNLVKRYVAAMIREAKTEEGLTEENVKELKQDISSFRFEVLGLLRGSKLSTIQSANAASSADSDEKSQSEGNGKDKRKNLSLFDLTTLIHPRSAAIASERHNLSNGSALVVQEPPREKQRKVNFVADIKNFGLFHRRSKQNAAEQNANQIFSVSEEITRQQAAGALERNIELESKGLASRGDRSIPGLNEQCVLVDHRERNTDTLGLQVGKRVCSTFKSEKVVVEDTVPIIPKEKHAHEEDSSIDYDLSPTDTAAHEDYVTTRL

[6] = molecular target: Apelin receptor (Homo sapiens, UniProt P35414); test: apelin receptor antagonists, arrestin read-out – cell-based, luminescent, enzyme-fragment complementation, selectivity assay for CCR6 antagonist project, SAR follow-up (AID 588359); format: functional
Chain of Apelin receptor (P35414 whole entry, the tested form may be a part): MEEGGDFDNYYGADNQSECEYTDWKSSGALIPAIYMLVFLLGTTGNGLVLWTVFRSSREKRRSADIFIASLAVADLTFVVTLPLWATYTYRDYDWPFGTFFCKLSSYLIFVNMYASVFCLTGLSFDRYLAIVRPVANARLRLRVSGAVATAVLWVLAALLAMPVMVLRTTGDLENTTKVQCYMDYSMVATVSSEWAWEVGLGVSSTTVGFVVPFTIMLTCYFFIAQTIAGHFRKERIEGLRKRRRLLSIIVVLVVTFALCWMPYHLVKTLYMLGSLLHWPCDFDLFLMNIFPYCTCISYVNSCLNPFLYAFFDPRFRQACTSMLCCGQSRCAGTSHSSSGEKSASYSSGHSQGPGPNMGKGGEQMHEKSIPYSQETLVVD

[7] = molecular target: Delta-type opioid receptor (Homo sapiens, UniProt P41143); test: Counterscreen for agonists of heterodimerization of the mu 1 (OPRM1) and delta 1 (OPRD1) opioid receptors: Luminescence-based cell-based high throughput dose response assay to identify agonists of OPRD1 homodimerization. [Related pubchem assays (depositor defined):AID504326, AID504355, AID504692, AID504904, AID504905]; format: functional
Chain of Delta-type opioid receptor (P41143 whole entry): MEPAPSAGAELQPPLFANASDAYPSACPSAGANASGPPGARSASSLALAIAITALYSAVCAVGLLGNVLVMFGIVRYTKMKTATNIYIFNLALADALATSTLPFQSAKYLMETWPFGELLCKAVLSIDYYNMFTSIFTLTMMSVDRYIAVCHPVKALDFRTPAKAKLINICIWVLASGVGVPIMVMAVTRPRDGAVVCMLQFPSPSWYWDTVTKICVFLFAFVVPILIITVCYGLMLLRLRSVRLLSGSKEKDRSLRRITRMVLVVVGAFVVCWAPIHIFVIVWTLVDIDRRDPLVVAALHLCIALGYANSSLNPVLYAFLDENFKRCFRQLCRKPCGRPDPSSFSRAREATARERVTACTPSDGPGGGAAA

[8] = molecular target: Mu-type opioid receptor (Homo sapiens, UniProt P35372); test: Counterscreen for agonists of heterodimerization of the mu 1 (OPRM1) and delta 1 (OPRD1) opioid receptors: Luminescence-based cell-based high throughput dose response assay to identify agonists of OPRM1 homodimerization.; format: functional;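 also: U2OS cells expressing OPRM1 and beta-arrestin as split beta-galactosidase partners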
Chain of Mu-type opioid receptor (P35372 whole entry): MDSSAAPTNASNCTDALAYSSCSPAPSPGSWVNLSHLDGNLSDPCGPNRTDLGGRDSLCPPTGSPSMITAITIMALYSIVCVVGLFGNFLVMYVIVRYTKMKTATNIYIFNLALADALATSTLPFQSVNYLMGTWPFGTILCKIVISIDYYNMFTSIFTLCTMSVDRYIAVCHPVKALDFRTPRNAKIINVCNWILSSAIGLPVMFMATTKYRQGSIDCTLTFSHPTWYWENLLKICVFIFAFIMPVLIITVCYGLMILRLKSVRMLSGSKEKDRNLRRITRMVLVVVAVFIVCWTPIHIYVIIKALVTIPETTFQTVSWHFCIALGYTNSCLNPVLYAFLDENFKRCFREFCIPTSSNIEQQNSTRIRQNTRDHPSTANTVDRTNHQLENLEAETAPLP

[9] = molecular target: 5-hydroxytryptamine receptor 5A (Homo sapiens, UniProt P47898); test: Counterscreen for agonists of OPRM1-OPRD1 heterodimerization: luminescence-based cell-based high throughput dose response assay to identify agonists of 5-hydroxytryptamine (serotonin) 5A receptor (HTR5A). [Related pubchem assays (depositor defined):AID504326, AID504355, AID504692, AID504904, AID504905]; format: functional
Chain of 5-hydroxytryptamine receptor 5A (P47898 whole entry): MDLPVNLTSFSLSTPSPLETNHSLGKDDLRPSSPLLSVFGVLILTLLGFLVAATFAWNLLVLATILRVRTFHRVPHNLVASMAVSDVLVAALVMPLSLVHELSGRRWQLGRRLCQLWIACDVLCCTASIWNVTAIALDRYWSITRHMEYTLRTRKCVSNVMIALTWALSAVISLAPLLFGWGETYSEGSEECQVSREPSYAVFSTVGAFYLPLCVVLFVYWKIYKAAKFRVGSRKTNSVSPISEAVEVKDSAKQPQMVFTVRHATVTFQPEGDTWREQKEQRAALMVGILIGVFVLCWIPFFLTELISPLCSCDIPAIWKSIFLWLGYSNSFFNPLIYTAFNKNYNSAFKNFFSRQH

[10] = molecular target: Luciferin 4-monooxygenase (Photinus pyralis, UniProt P08659); test: inhibition of purified Photinus pyralis luciferase – biochemical, luminescence, dose response (AID 1891)
Chain of Luciferin 4-monooxygenase (P08659 whole entry): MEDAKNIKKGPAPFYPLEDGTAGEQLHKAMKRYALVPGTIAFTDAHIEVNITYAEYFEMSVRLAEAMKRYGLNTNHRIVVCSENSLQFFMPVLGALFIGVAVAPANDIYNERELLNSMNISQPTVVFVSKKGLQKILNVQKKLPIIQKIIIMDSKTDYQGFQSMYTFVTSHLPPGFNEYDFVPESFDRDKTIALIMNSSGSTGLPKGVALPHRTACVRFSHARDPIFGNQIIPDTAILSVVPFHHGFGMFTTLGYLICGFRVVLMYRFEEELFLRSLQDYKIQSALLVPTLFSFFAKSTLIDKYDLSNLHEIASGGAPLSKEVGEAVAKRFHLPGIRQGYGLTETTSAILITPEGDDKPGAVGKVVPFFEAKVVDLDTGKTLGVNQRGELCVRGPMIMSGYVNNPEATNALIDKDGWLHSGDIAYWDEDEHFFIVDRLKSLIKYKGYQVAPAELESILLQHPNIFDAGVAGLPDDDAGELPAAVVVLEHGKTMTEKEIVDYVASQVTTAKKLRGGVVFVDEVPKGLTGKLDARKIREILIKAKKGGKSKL

[11] = Luminescence Cell-Based Dose Confirmation HTS to Identify Inhibitors of Platelet Dense Granule Release. [Related pubchem assays: 1663 (Primary HTS), 1678 (Summary of Project)]; format: functional
[12] = system: HeLa; test: ATP-based viability loss in HeLa cells – cell-based, CellTiter-Glo luminescence, cherry-pick samples, cytotoxicity control for MITF activator project, dose response (AID 540259); format: functional; conditions: Homo sapiens
[13] = molecular target: T5, Rac GTPase-activating protein 1 (Homo sapiens, UniProt Q9H0H5); test: blockers of MgcRacGAP-driven Rac1 GTP hydrolysis – biochemical, ADP Hunter fluorescence, primary and confirmatory, confirmation (AID 624330); format: functional
T5 sequence (Q9H0H5 whole entry): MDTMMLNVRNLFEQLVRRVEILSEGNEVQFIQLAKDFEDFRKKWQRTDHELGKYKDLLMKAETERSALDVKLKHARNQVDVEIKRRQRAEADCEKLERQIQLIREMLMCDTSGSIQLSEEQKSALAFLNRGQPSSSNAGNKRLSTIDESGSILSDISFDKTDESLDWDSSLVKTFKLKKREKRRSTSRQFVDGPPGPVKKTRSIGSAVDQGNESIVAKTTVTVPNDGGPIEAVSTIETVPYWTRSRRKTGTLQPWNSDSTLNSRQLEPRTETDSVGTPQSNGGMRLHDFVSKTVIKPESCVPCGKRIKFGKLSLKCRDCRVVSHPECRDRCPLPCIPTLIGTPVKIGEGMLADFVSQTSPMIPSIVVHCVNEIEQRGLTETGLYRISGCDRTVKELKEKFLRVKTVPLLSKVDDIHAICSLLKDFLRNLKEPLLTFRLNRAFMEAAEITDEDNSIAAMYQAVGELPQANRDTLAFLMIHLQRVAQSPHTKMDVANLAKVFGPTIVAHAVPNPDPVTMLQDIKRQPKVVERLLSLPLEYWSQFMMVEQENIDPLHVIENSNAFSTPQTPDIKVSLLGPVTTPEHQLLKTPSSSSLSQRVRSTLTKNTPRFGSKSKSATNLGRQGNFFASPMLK

[14] = system: Escherichia coli; test: microbe, parasite or virus in culture

Row | EC50 [1] | EC50 [2] | IC50 [3] | IC50 [4] | EC50 [5] | IC50 [6] | EC50 [7] | EC50 [8] | EC50 [9] | SMILES | EC50 [10] | EC50 [11] | AC50 [12] | IC50 [13] | AC50 [14]
1 | 40.4 µM (active) | 40.6 µM (active) | > 20 µM (inactive) | > 66.6 µM (inactive) | 2.66 µM (active) | 19.3 µM (active) | > 92.5 µM (inactive) | > 92.5 µM (inactive) | > 92.5 µM (inactive) | COCCCn1c(N)c(-c2nc3ccccc3n2C)c2nc3ccccc3nc21 | – | – | – | – | –
2 | – | – | – | – | – | – | – | – | – | COc1ccc(/C=N/Nc2ccccn2)cc1O | 17.6 µM (active) | 12.5 µM (active) | 282 µM (active) | 70.2 µM (active) | 31.1 µM (active)
